Measurements published in ChEMBL document CHEMBL4706653, “Ultra-short lipopeptides against gram-positive bacteria while alleviating antimicrobial resistance” (Eur J Med Chem, 2021).
The source made the active and inactive calls. The rule behind the calls is not given here. Residues, ends and D or L forms follow the SMILES beside them. *: point of attachment. Lauroyl = CCCCCCCCCCCC(=O)*

What was measured:
[1] = tested on: Cell membrane; assay: Induction of membrane disruption in Staphylococcus aureus ATCC 25923 assessed as PI-positive cells at 4 times MIC measured after 30 mins by propidium iodide staining based flow cytometry relative to control
[2] = tested on: Staphylococcus aureus; assay: Antimicrobial activity against Staphylococcus aureus ATCC 25923 assessed as reduction in bacterial growth at 0.5 to 1 times MIC preincubated for 4 hrs followed by replating on MHB agar and measured after 24 hrs by time kill assay; assay type: functional, organism-based; conditions: time 28.0 hrs

## CCCCCCCCCCCC(=O)N[C@@H](CCCNC(=N)N)C(=O)N[C@@H](CCCNC(=N)N)C(=O)N[C@@H](Cc1c[nH]c2ccccc12)C(N)=O (Lauroyl-Arg-Arg-Trp-NH2)
[1]
  Activity: 77.2%
[2]
  Activity: inactive
